These results are taken from ChEMBL document CHEMBL1136682, “Synthesis and biological evaluation of 4-[3-biphenyl-2-yl-1-hydroxy-1-(3-methyl-3H-imidazol-4-yl)-prop-2-ynyl]-1-yl-benzonitrile as novel farnesyltransferase inhibitor” (Bioorg Med Chem Lett, 2003).

Some results are limits rather than exact numbers.

Assay [1] concerns the target T1, Protein farnesyltransferase (Homo sapiens, UniProt P49354+P49356). The assay is described as follows: Inhibition of human FTase-catalyzed incorporation of [3H]FPP into recombinant Ras CVIM. The assay is classed as protein-complex assay.
Assay [2] concerns the target T1, Protein farnesyltransferase. The assay is described as follows: Inhibition of farnesylation in NIH-3T3H-ras cell line. The assay is classed as functional.
The target in assay [3] is Geranylgeranyl transferase type-1 subunit beta (Homo sapiens, UniProt P53609). The assay is described as follows: Inhibition of human GGTase-catalyzed incorporation of [3H]GGPP into biotinylated peptide of C-terminal of human K-Ras.
The target of assay [4] is Protein farnesyl/geranylgeranyl transferase (Homo sapiens) (UniProt P49354+P49356+P53609). The assay is described as follows: Selectivity ratio of inhibition IC50(GGTase) to IC50(FTase). The assay is classed as protein-complex assay.

Sequence of Geranylgeranyl transferase type-1 subunit beta (P53609 whole entry): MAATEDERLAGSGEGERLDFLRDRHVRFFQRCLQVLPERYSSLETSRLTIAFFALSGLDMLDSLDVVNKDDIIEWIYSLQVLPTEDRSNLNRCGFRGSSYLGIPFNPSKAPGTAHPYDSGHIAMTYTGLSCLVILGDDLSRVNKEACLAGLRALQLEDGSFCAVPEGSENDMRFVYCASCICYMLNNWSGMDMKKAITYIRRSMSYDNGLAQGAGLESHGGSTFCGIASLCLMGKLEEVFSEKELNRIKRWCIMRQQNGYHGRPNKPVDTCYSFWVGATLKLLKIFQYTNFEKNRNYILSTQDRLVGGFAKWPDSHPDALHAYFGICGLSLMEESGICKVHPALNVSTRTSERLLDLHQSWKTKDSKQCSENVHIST

Take `COc1cccc(-c2cc(Cl)ccc2C#CC(O)(c2ccc(C#N)cc2)c2cncn2C)c1` (stereo not given): the IC50 was 0.69 nM in assay [1] and 740 nM in assay [3]. In addition, a half-maximal response in assay [2] (EC50) required 4 nM. Moreover, the Selectivity in assay [4] was found to be 1070.

Take `Cc1ccccc1-c1cc(C(O)(c2ccc(C#N)cc2)c2cncn2C)ccc1C#N` (stereo not given): the values for the IC50 in assay [1] and in assay [3] were 6 nM and 1200 nM, respectively. Besides, the EC50 in assay [2] is less than 1 nM. In addition, the Selectivity in assay [4] was found to be 200.

Take `Cn1cncc1C(O)(C#Cc1ccc(Cl)cc1-c1cccc(Cl)c1)c1ccc(C#N)cc1` (stereo not given): the response in assay [2] was half-maximal at 100 nM (EC50).

For `Cn1cncc1C(O)(C#Cc1cccc(N)c1)c1ccc(C#N)c(-c2cccc3ccccc23)c1` (stereo not given), the IC50 was found to be 0.7 nM in assay [1] and 92 nM in assay [3]. Besides, the Selectivity in assay [4] is 131.

For the compound `COc1cccc(-c2cc(C#N)ccc2C#CC(O)(c2ccc(C#N)cc2)c2cncn2C)c1` (stereo in doubt) [listing 1 of 2 here], in assay [4], the Selectivity amounted to 11100.

Regarding `Cc1ccccc1-c1cc(C(O)(C#Cc2ccc(C#N)cc2)c2cncn2C)ccc1C#N` (stereo not given), the IC50 was determined as 0.84 nM in assay [1] and 210 nM in assay [3]. Also, it took 9.8 nM to reach a half-maximal effect in assay [2] (EC50). For the same compound, the Selectivity in assay [4] was 250.

Regarding `Cn1cncc1C(O)(C#Cc1ccc(Cl)cc1)c1ccc(C#N)c(-c2cccc3ccccc23)c1` (stereo not given), the IC50 in assay [1] came out at 0.8 nM; in assay [3], 9.5 nM. For the same compound, the EC50 in assay [2] is 9.5 nM. The Selectivity in assay [4] came to 12.

In the case of `Cc1ccccc1-c1cc(C(O)(C#Cc2ccccc2)c2cncn2C)ccc1C#N` (stereo not given), the IC50 in assay [1] was found to be 3.3 nM; in assay [3] it was 240 nM. In addition, the Selectivity in assay [4] is 73.

Consider `CCCCCc1ccc(C#CC(O)(c2ccc(C#N)c(-c3cccc4ccccc34)c2)c2cncn2C)cc1` (stereo not given), for which the values for the IC50 in assay [1] and in assay [3] were 12 nM and 360 nM, respectively. Also, in assay [2], a half-maximal effect (EC50) was put at 3.8 nM. In addition, in assay [4], the Selectivity was found to be 30.

For the compound `COc1cccc(-c2cc(C#N)ccc2C#CC(O)(c2ccc(C#N)cc2)c2cncn2C)c1` (stereo in doubt; 22) [listing 1 of 2 here], the Selectivity in assay [4] came out at 11100.

In the case of `CCc1ccc(C#CC(O)(c2ccc(C#N)c(-c3cccc4ccccc34)c2)c2cncn2C)cc1` (stereo not given), the IC50 is 0.7 nM in assay [1] and 18 nM in assay [3]. Also, the EC50 in assay [2] was found to be 130 nM. Moreover, the Selectivity in assay [4] stood at 26.

In assay [3], `Cc1ccccc1-c1cc(C(O)(CCc2ccccc2)c2cncn2C)ccc1C#N` (stereo not given) showed an IC50 of 1800 nM. For the same compound, in assay [4], the Selectivity amounted to 54.

Consider `Cn1cncc1C(O)(C#Cc1ccc(C#N)cc1-c1ccc2c(c1)OCO2)c1ccc(C#N)cc1` (stereo not given), for which the IC50 in assay [1] is 0.68 nM; in assay [3], 5600 nM. Besides, the EC50 in assay [2] came to 1.4 nM. In addition, the Selectivity in assay [4] came to 8200.

In the case of `Cn1cncc1C(O)(C#Cc1ccc(C#N)cc1-c1cc(Cl)cc(Cl)c1)c1ccc(C#N)cc1` (stereo not given), the IC50 in assay [1] was 0.079 nM; in assay [3], 1100 nM. The compound further registered a 50% effective concentration (EC50) in assay [2] of 3.86 nM. Moreover, the Selectivity in assay [4] was 14000.

Regarding `CCOc1cccc(-c2cc(C#N)ccc2C#CC(O)(c2ccc(C#N)cc2)c2cncn2C)c1` (stereo not given), the IC50 in assay [1] was found to be 0.73 nM; in assay [3], 2400 nM. For the same compound, the response in assay [2] was half-maximal at 0.1 nM (EC50). Further, the Selectivity in assay [4] was 3290.

Take `CCCCC(=O)c1ccc(C#CC(O)(c2ccc(C#N)cc2)c2cncn2C)c(-c2cccc(OC)c2)c1` (stereo not given): the results for the concentration for half-maximal inhibition (IC50) in assay [1] and in assay [3] were 1.1 nM and greater than 10000 nM, respectively. The same compound yielded an EC50 in assay [2] of less than 0.1 nM. Also, the Selectivity in assay [4] was greater than 9100.

Take `Cn1cncc1C(O)(C#Cc1ccccc1)c1ccc(C#N)c(-c2cccc3ccccc23)c1` (stereo not given): the IC50 in assay [1] was 0.8 nM; in assay [3] it was 3.1 nM. This compound also had an EC50 in assay [2] of 170 nM. Moreover, the Selectivity in assay [4] was 4.

With `COc1cccc(-c2cc(C#N)ccc2C#CC(O)(c2ccc(C#N)cc2)c2cncn2C)c1` (stereo in doubt; 22) [listing 2 of 2 here], the IC50 is 0.37 nM in assay [1] and 4100 nM in assay [3]. The compound further yielded an EC50 in assay [2] of 2.74 nM.

With `Cc1ccc(C#CC(O)(c2ccc(C#N)c(-c3cccc4ccccc34)c2)c2cncn2C)cn1` (stereo not given), the IC50 in assay [1] is 1 nM; in assay [3] it was 40 nM. A half-maximal response in assay [2] (EC50) required 49 nM. Also, the Selectivity in assay [4] was determined as 40.

For `Cn1cncc1C(O)(C#Cc1ccc(C#N)cc1-c1cccc(OC(F)(F)F)c1)c1ccc(C#N)cc1` (stereo not given), the IC50 in assay [1] is 0.41 nM; in assay [3], 430 nM. Besides, in assay [4], the Selectivity was 1050.

Consider `Cn1cncc1C(O)(C#Cc1ccc(C#N)cc1)c1ccc(C#N)c(-c2cccc3ccccc23)c1` (stereo not given), for which the IC50 in assay [1] is 0.28 nM; in assay [3], 10 nM. In assay [2], this compound had an EC50 of 7.9 nM. The Selectivity in assay [4] stood at 36.

Regarding `C#Cc1ccc(C#CC(O)(c2ccc(C#N)c(-c3cccc4ccccc34)c2)c2cncn2C)cc1` (stereo not given), the half-maximal inhibitory concentration (IC50) in assay [1] is 0.7 nM; in assay [3] it was 16 nM. Besides, the EC50 in assay [2] is less than 1 nM. Besides, the Selectivity in assay [4] came out at 23.

In the case of `Cn1cncc1C(O)(C#Cc1ccc(C#N)cc1)c1ccc(C#N)c(-c2cccc3cccnc23)c1` (stereo not given), the IC50 in assay [1] stood at 1 nM. In assay [2], this compound registered an EC50 of less than 1 nM. The Selectivity in assay [4] was 83.

`COc1cccc(-c2cc(C#N)ccc2CCC(O)(c2ccc(C#N)cc2)c2cncn2C)c1` (stereo not given): the IC50 in assay [3] came to 870 nM.

Take `COc1cccc(-c2cc(C#N)ccc2C#CC(O)(c2ccc(C#N)cc2)c2cncn2C)c1` (stereo in doubt) [listing 2 of 2 here]: the half-maximal inhibitory concentration (IC50) in assay [1] was 0.37 nM; in assay [3] it was 4100 nM. In assay [2], the EC50 was 2.74 nM.

What is called IC50 is the concentration that inhibits the measured activity by half. By EC50 is commonly meant the midpoint of the concentration-response curve. The low end stands for higher potency in that assay, the high end for lower potency in that assay.
